# Experimental data reported in PubChem BioAssay (NCI).
# Values joined by “and” are separate entries in the source; they are usually repeats but may differ in a detail not shown here. Identical values can stand only once.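 Values below derive from 48-hour exposures of cells grown in 96-well plates, with endpoints linearly interpolated between the two concentrations bracketing the appropriate inhibition level. Abbreviation: GI50, concentration required for 50% inhibition of growth. TGI marks complete inhibition of growth.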
# Assays:
# Experiment in all cases: NCI tumour cell line growth inhibition, 48 h
# [1] = test system: SK-OV-3 ovarian
# [2] = test system: SN12C renal
# [3] = test system: HS 578T breast
# [4] = test system: NCI-H23 lung
# [5] = test system: NCI-H522 lung
# [6] = test system: U251 CNS
# [7] = test system: SK-MEL-28 melanoma
# [8] = test system: OVCAR-4 ovarian
# [9] = test system: CAKI-1 renal
# [10] = test system: HCT-116 colon
SMILES,GI50 [1],TGI [1],GI50 [2],TGI [2],GI50 [3],TGI [3],GI50 [4],TGI [4],GI50 [5],TGI [5],GI50 [6],TGI [6],GI50 [7],TGI [7],GI50 [8],TGI [8],GI50 [9],TGI [9],TGI [10],GI50 [10]
C=C1C(=O)O[C@H]2[C@H]1CC/C(COC(=O)CCCCCCCC(=O)OC/C1=C/CC[C@@]3(C)O[C@H]3[C@H]3OC(=O)C(=C)[C@@H]3CC1)=C\CC[C@@]1(C)O[C@@H]21,13.1 µM,34.3 µM,2.75 µM,9.33 µM,3.84 µM,27.3 µM,2.26 µM,6.52 µM,1.97 µM,3.92 µM,2.13 µM,5.37 µM,2.94 µM,11.4 µM,4.58 µM,20.1 µM,,,,
CCn1cc(C(=O)N/N=C/c2cccs2)c(=O)c2cc(F)c(N3CCNC(C)C3)c(F)c21 (configuration not stated),1.79 µM,3.38 µM,1.55 µM,2.88 µM,14.1 µM,35.9 µM,1.79 µM,3.47 µM,,,1.67 µM,3.06 µM,,,1.96 µM,3.97 µM,1.66 µM,3.03 µM,,
Cc1ccc(C)c(NC(=O)C(=O)C2C(=O)N(c3ccccc3)N=C2N)c1 (configuration not stated),,,,> 100 µM,,,,> 100 µM,,> 100 µM,,> 100 µM,,> 100 µM,,> 100 µM,,> 100 µM,> 100 µM,
CSc1nnc(-c2cc3c([nH]c4ccccc43)c(-c3cccc(O)c3)n2)n1-c1ccc(C)cc1,3.19 µM,14 µM,5.83 µM,81.6 µM,3.86 µM,72.1 µM,5.76 µM,> 100 µM,2.26 µM,11.1 µM,4.84 µM,28.7 µM,2.23 µM,7.74 µM,2.73 µM,8.61 µM,,,> 100 µM,4.35 µM
CC(C)(C)[Si](C)(C)OCCc1ccccc1C1CC2(S(=O)(=O)c3ccccc3)ON1CC2S(=O)(=O)c1ccccc1 (configuration not stated),,> 100 µM,,> 100 µM,,> 100 µM,,> 100 µM,,,,> 100 µM,,> 100 µM,,> 100 µM,,,> 100 µM,
Cc1cc(Cl)ccc1N=C1NC(=O)C(CC(=O)Nc2cccc(C)c2C)S1 (configuration not stated),,55.9 µM,,82.3 µM,,,,52.1 µM,,,,74.5 µM,,> 100 µM,,69.2 µM,,54.5 µM,,
CN(C)N=Nc1cccc(C(N)=O)c1,,> 100 µM,,> 100 µM,,,,> 100 µM,,,,> 100 µM,,> 100 µM,,> 100 µM,,> 100 µM,> 100 µM,
O=[N+]([O-])c1ccc(C2SCc3nc4ccccc4n32)cc1 (configuration not stated),,> 100 µM,,> 100 µM,,,,> 100 µM,,,,> 100 µM,,> 100 µM,,> 100 µM,,> 100 µM,,
COc1cc([C@@H]2OC(=O)C3C2C(=O)O[C@H]3c2ccc(O)c(OC)c2)ccc1O (some centres not stated),,> 100 µM,,> 100 µM,,,,> 100 µM,,,,> 100 µM,,> 100 µM,,> 100 µM,,> 100 µM,> 100 µM,
Cc1cc(Cl)nc(N(CCCNc2ccnc3cc(Cl)ccc23)Cc2cccs2)n1,3.27 µM,12.6 µM,1.4 µM,12.5 µM,2.21 µM,12.9 µM,1.28 µM,5.8 µM,1.31 µM,4.31 µM,2.18 µM,10.2 µM,1.79 µM,5.78 µM,2.81 µM,25.6 µM,,,2.64 µM,0.437 µM
O=C(Nc1ccc([N+](=O)[O-])cc1[N+](=O)[O-])C(=O)C(C(=O)c1ccc(Cl)c(Cl)c1)C1OC(=O)c2ccccc21 (configuration not stated),,82.5 µM,,85 µM,,,,39.8 µM,,44.7 µM,,> 100 µM,,,,> 100 µM,,> 100 µM,38.4 µM,
CCOC(=O)/C(C#N)=C\Sc1ccccc1,,74.7 µM,,31.7 µM,,,,> 100 µM,,11.3 µM,,29 µM,,42.8 µM,,> 100 µM,,65.9 µM,59.8 µM,
COc1cc2c3c(n([C@@H]4CCOC4)c(=O)c2cc1OC)-c1cc2c(cc1C3=O)OCO2,,,< 0.01 µM,> 100 µM,> 100 µM,> 100 µM,,,< 0.01 µM,> 100 µM,,,,,,,,,,
O=c1cc(-c2ccccc2)oc2cc(OCCCCCN3CCOCC3)cc(O)c12,16.4 µM,44.1 µM,> 100 µM,> 100 µM,41.3 µM,> 100 µM,,,31 µM,94.9 µM,18.6 µM,45.5 µM,> 100 µM,> 100 µM,> 100 µM,> 100 µM,,,64.8 µM,19.2 µM
C[C@]12CC(C=O)C(=O)C(O)=C1CC[C@@H]1C2CC[C@@]2(C)C1CC[C@]2(C)O (some centres not stated),,46.3 µM,,42.4 µM,,,,46.4 µM,,,,44.9 µM,,68.1 µM,,34.8 µM,,,54.3 µM,
COC(=O)C12C34C=CC5(CCC6(C=CC1(CC3)O6)C52C(=O)OC)O4 (configuration not stated),,> 100 µM,,> 100 µM,,,,> 100 µM,,> 100 µM,,> 100 µM,,> 100 µM,,> 100 µM,,> 100 µM,> 100 µM,
COc1cc(C2c3cc4c(cc3[C@@H](Nc3ccc([N+](=O)[O-])cc3)C3COC(=O)[C@H]23)OCO4)cc(OC)c1O (some centres not stated),0.798 µM,10.1 µM,0.486 µM,7.96 µM,,,0.341 µM,4.12 µM,0.733 µM,5.42 µM,0.418 µM,7.69 µM,,34.8 µM,,62.4 µM,0.154 µM,0.941 µM and 5.06 µM,14.2 µM,
O=C1C(Cl)=C(Cl)C(=O)N1c1cccc(C(F)(F)F)c1,,> 100 µM,,> 100 µM,,,,> 100 µM,,26.4 µM,,> 100 µM,,> 100 µM,,> 100 µM,,98 µM,> 100 µM,
CCCCCCCCC(C)CCCCCCCCC(=O)OCC(COP(=O)([O-])OCC[N+](C)(C)C)OC(=O)CCCCCCCCC(C)CCCCCCCC (configuration not stated),,> 100 µM,,> 100 µM,,,,> 100 µM,,> 100 µM,,> 100 µM,,> 100 µM,,> 100 µM,,> 100 µM,> 100 µM,
CC(C)N1C(C)[C@@H](c2ccccc2)O[P@@]1(=O)CC1=CCCCC1 (some centres not stated),,> 100 µM,,> 100 µM,,,,> 100 µM,,> 100 µM,,> 100 µM,,> 100 µM,,,,,> 100 µM,
